Measured values published in patent US20200346048A1, “METHOD AND KIT FOR HOME CONTROLLED OVARIAN STIMULATION FOR IN VITRO FERTILIZATION” (priority 2019, published 2020).
“And” between values parts separate entries of the source, which are not always exact repeats. Equal entries are not always repeated. Square brackets hold non-standard residues; d marks the D form. Peptide text beside a SMILES is read from it. d(hArg(Et2)) = CCN=C(NCC)NCCCC[C@@H](N)C(=O)O; hArg(Et2) = CCN=C(NCC)NCCCC[C@H](N)C(=O)O; dPhe(4-Cl) = N[C@H](Cc1ccc(Cl)cc1)C(=O)O; d2Nal = N[C@H](Cc1ccc2ccccc2c1)C(=O)O; d3Pal = N[C@H](Cc1cccnc1)C(=O)O

Columns and labels:
[1] = system: Luteinizing hormone (LH) blood level; test: Home controlled ovarian hyperstimulation method with vaginal elagolix (Example 2): LH blood level before and after medication; type: in vivo, female patients; settings: 50 mg elagolix tablet as vaginal suppository on days 9 and 11
Protocol: On day 9 of the menstrual cycle, the patient is directed to orally take 50 to 150 mg, preferably 100 mg, (one, two, or three 50 mg oral tablets) of clomiphene citrate and to either insert vaginally or take orally, depending on the patient's preference, a gonadotropin-releasing hormone (GnRH) antagonist such as elagolix (marketed as ORILISSA®), instead of the expensive injections of ganirelix acetate (GANIRELEX®) or cetrorelix acetate (marketed as CETROTIDE®) used routinely in conventional practices. A dose of 25 mg (⅛^th of a pill) up to 200 mg of elagolix (1 full pill), preferably 25 mg, will be used, with the dose being the same whether inserted vaginally or taken orally. Elagolix is a GnRH antagonist that is conventionally used in the treatment of pain associated with endometriosis in women, not for the treatment of infertility. By blocking the GnRH receptor, elagolix suppresses LH release by the pituitary gland and thus prevents LH surge. Ultimately, elagolix suppresses gonadal steroid production, thereby reducing circulating levels of sex hormones such as progesterone, estradiol, and testosterone. Elagolix is generally an oral medication (oral tablet), however in the present method, elagolix is a tablet taken mainly as a vaginal suppository, but may be taken orally based on the patient's preference. […]

[2] = system: Luteinizing hormone (LH) blood level; test: GnRH antagonist protocol with ganirelix acetate injections (Example 1): LH blood level before and after medication; type: in vivo, female patients
Protocol: Five female patients were treated with a GnRH antagonist protocol requiring injections of medications. […]
Three patients, numbered 3 to 5, were injected with 75, 150 and 225 Units of FSH, respectively, on days 4 to 12 and one third a syringe of 150 mcg/0.5 mL of ganirelix acetate on days 11 to 13. Patient no. 3 received 50 mg of clomiphene citrate on days 4 to 12, and 2.5 mg of letrozole on days 4 to 8. Patient no. 4 received 100 mg of clomiphene citrate and 2.5 mg of letrozole on days 4 to 8, and 50 mg of clomiphene citrate on days 9 to 11. Patient no. 5 received no clomiphene citrate or letrozole. Luteinizing hormone (LH) blood level was 12.0, 18.0 and 14.6 mIU/mL, respectively, on day 10 and dropped to 4.9, 16.0 and 14.1 mIU/mL, respectively, on day 12. […]

Row | SMILES | Luteinizing hormone (LH) blood level on day 13 [1] | Luteinizing hormone (LH) blood level on day 11 ([1]; clomiphene citrate 100 mg, letrozole 5 mg) | LH blood hormone level (mIU/mL) AFTER medication intake ([2]; Example 1, one line per patient (patients 1-5), after ganirelix injections, listed as Conventional Ganielex/Cetrotide Injectables) | LH blood hormone level (mIU/mL) BEFORE medication intake ([2]; Example 1, one line per patient (patients 1-5), baseline before ganirelix injections, with FSH and, except patient 5, clomiphene citrate/letrozole, listed as Conventional Ganielex/Cetrotide Injectables) | % Drop in blood LH hormone level ([2]; Example 1, one line per patient (patients 1-5), before vs after medication intake, listed as Conventional Ganielex/Cetrotide Injectables) | Luteinizing hormone (LH) blood level on day 12 ([2]; patient no. 1, half a syringe of 150 mcg/0.5 mL ganirelix acetate on days 11 and 12) | Luteinizing hormone (LH) blood level on day 10 ([2]; patient no. 1, half a syringe of 150 mcg/0.5 mL ganirelix acetate on days 11 and 12, FSH 150 Units, clomiphene citrate 50 mg, letrozole 2.5 mg) | Luteinizing hormone (LH) blood level on day 13 ([2]; patient no. 2, half a syringe of 150 mcg/0.5 mL ganirelix acetate on days 11 to 13) | Luteinizing hormone (LH) blood level on day 11 ([2]; patient no. 2, half a syringe of 150 mcg/0.5 mL ganirelix acetate on days 11 to 13, FSH 75/150 Units, clomiphene citrate 50 mg, letrozole 2.5 mg) | Luteinizing hormone (LH) blood level on day 10 ([2]; patients no. 3, 4, 5 respectively, one third a syringe of 150 mcg/0.5 mL ganirelix acetate on days 11 to 13, FSH 75, 150, 225 Units)
1 | COc1cccc(-c2c(C)n(Cc3c(F)cccc3C(F)(F)F)c(=O)n(C[C@H](NCCCC(=O)O)c3ccccc3)c2=O)c1F [Vaginal elagolix suppository, elagolix] | 1.0 mIU/mL | 7.0 mIU/mL | – | – | – | – | – | – | – | –
2 | CCN=C(NCC)NCCCC[C@H](NC(=O)[C@H](CC(C)C)NC(=O)[C@@H](CCCCNC(=NCC)NCC)NC(=O)[C@H](Cc1ccc(O)cc1)NC(=O)[C@H](CO)NC(=O)[C@@H](Cc1cccnc1)NC(=O)[C@@H](Cc1ccc(Cl)cc1)NC(=O)[C@@H](Cc1ccc2ccccc2c1)NC(C)=O)C(=O)N1CCC[C@H]1C(=O)N[C@H](C)C(N)=O [Ganirelex, ganirelix acetate] (Ac-[d2Nal][dPhe(4-Cl)][d3Pal]SY[d(hArg(Et2))]L[hArg(Et2)]P[dA]-NH2) | – | – | 2.0 mIU/mL and 6.3 mIU/mL and 4.9 mIU/mL and 16.0 mIU/mL and 14.1 mIU/mL | 4.3 mIU/mL and 12.0 mIU/mL (2×) and 18.0 mIU/mL and 14.6 mIU/mL | 3.4% | 2 mIU/mL | 4.3 mIU/mL | 6.3 mIU/mL | 12.0 mIU/mL | 12.0 mIU/mL and 18.0 mIU/mL and 14.6 mIU/mL
